This is an account of results in patent publication US10557124B2, “Compositions and methods for obtaining stem cell derived lung tissue, and related uses thereof” (The Regents of the University of Michigan, priority 2015, dated 2020).

This experiment deals with foregut spheroids (NOG+SB+FGF4+Ch). As to the kind of experiment: qRT-PCR of foregut spheroids generated with addition of HH agonist SAG. The following applies: SAG added to NOG+SB+FGF4+Ch spheres; compared to spheres without SAG. Type of experiment: cell-based, human. The method, then: Based on the observations that stimulating HH and inhibiting FGF signaling strongly enhances NKX2.1 expression while reducing PAX8 expression (FIG. 5), multiple conditions of HH activation and FGF inhibition to induce NKX2.1^HI/PAX8^LO foregut spheroids (NOG/SB/F/Ch) were tested (FIG. 8). […] Therefore, several conditions were also tested that stimulated HH signaling using SAG only, without FGF inhibition. […] Additionally, nuclear NKX2.1 protein expression was found in ECAD+ epithelium which co-expressed endoderm epithelial markers FOXA2 and SOX2 (FIG. 10B, C, FIG. 11). […] Thus, concomitant down-regulation of SOX2 and increased NKX2.1 observed in SAG treated foregut spheroids is consistent with early transcriptional changes that occur during lung specification in mice.
After differentiation into definitive endoderm, cells were incubated in foregut media with NOG, SB, 500 ng/mL FGF4 (R&D Systems), and 2 μM CHIR99021 (Chiron, Stemgent) for 4-6 days. After 4 days with treatment of growth factors, three-dimensional floating spheroids were present in the culture. Three-dimensional spheroids were transferred into Matrigel to support 3D growth as previously described (see, e.g., McCracken K W, et al., Nature Protocols; 2011 Nov. 10; 6(12):1920-8). Briefly, spheroids were embedded in a droplet of Matrigel (BD Bioscience #356237) in one well of a 24 well plate, and incubated at room temperature for 10 minutes. After the Matrigel solidified, foregut media with 1% Fetal bovine serum (FBS, CAT#: 16000-044, Life Technologies) or other growth factors and small molecules were overlaid and replaced every 4 days. Organoids were transferred into new Matrigel droplets every 10 to 15 days.
RNA was extracted from monolayers, spheroids, and organoids using a MagMAX-96 Total RNA Isolation Kit (Life Technologies) and MAG Max Express (Applied Biosystems). RNA quantity and quality were determined spectrophotometrically, using a Nano Drop 2000 (Thermoscientific). Reverse transcription was conducted using the SuperScript VILO kit (Invitrogen), according to manufacturer's protocol. Finally, qRT-PCR was carried out using Quantitect Sybr Green MasterMix (Qiagen) on a Step One Plus Real-Time PCR system (Life Technologies).

As for `CNC1CCC(N(Cc2cccc(-c3ccncc3)c2)C(=O)c2sc3ccccc3c2Cl)CC1` (stereo not drawn) [SAG], the CDX2 transcript result is “reduction”, the HHEX transcript result was “not significantly different”, the NKX2.1 transcript entry is “significant increase” and the PAX8 transcript result is recorded as “not significantly different”. The PDX1 transcript result is given as “not significantly different” and the SOX2 transcript result is reported as “reduction”.
